According to patent publication US20170354148A1, “SAFENED HERBICIDAL COMPOSITIONS CONTAINING HALAUXIFEN AND METHODS OF USE THEREOF IN BRASSICA SPECIES” (Dow AgroSciences LLC, priority 2016, published 2017):
Like-named read-outs stand apart in the source and are kept apart here.

Assays:
[1] = system: turnip or Polish canola (Brassica rapa, BRSRR); settings: in vivo
[2] = system: Roundup Ready® canola (Brassica napus, RR-BRSNN); settings: in vivo
[3] = system: winter oilseed rape (Brassica napus, BRSNW); settings: in vivo
[4] = system: rutabaga (Brassica napus var. napobrassica, BRSNA); settings: in vivo
[5] = system: Nexera™ canola (Brassica napus, BRSNN-NEX); settings: in vivo
[6] = system: kale/Chinese kale (Brassica alboglabra, BRSAG); settings: in vivo
[7] = system: rutabaga (Brassica napus var. napobrassica, BRSNA); assay: Example 5 greenhouse trials, postemergence visual injury; settings: for % Visual Injury Obs / Visual Injury Obs: BRSNA
[8] = system: Nexera™ canola (Brassica napus, BRSNN-NEX); assay: as above; settings: for % Visual Injury Obs / Visual Injury Obs: BRSNN-NEX
[9] = system: turnip or Polish canola (Brassica rapa, BRSRR); assay: as above; settings: for % Visual Injury Obs / Visual Injury Obs: BRSRR
[10] = system: Spring Argentine canola (Brassica napus, BRSNS); assay: Example 3 field trials (Canada), postemergence crop safety, visual phytotoxicity; settings: alone or mixed
[11] = system: kale/Chinese kale (Brassica alboglabra, BRSAG); assay: Example 5 greenhouse trials, postemergence visual injury; settings: for % Visual Injury Obs / Visual Injury Obs: BRSAG
[12] = system: winter oilseed rape (Brassica napus, BRSNW); assay: as above; settings: for % Visual Injury Obs / Visual Injury Obs: BRSNW
[13] = system: Roundup Ready® canola (Brassica napus, RR-BRSNN); assay: as above; settings: for % Visual Injury Obs / Visual Injury Obs: RR-BRSNN
[14] = system: Aparima Gold swede (Brassica sp., BRSSS); assay: Example 2 field trials (Canterbury, New Zealand), postemergence crop safety, visual phytotoxicity
[15] = system: Aparima Gold swede (Brassica sp., BRSSS); assay: Example 1 pot trials, postemergence crop safety, visual phytotoxicity

NCCO.O=C(O)c1nc(Cl)ccc1Cl [Clopyralidolamine]
% Visual Injury Obs [1]: 0%
% Visual Injury Obs [2]: 0%
% Visual Injury Obs [3]: 0%
% Visual Injury Obs [4]: 0%
% Visual Injury Obs [5]: 0%
% Visual Injury Obs [6]: 0%

O=C(O)c1c(Cl)ccc2cc(Cl)cnc12 [Quinclorac, 3,7-dichloro-8-quinolinecarboxylic acid]
% Visual Injury Obs ([7]; 50 g ai/ha alone, 20-22 d): 0%
% Visual Injury Obs ([7]; 100 g ai/ha alone, 20-22 d): 0%
% Visual Injury Obs ([7]; 200 g ai/ha alone, 20-22 d): 0%
% Visual Injury Obs ([7]; quinclorac 50 g ai/ha): 0%
Visual Injury Obs ([7]; quinclorac 50 g ai/ha): 0%
% Visual Injury Obs ([7]; quinclorac 100 g ai/ha): 0%
Visual Injury Obs ([7]; quinclorac 100 g ai/ha): 0%
% Visual Injury Obs ([7]; quinclorac 200 g ai/ha): 0%
Visual Injury Obs ([7]; quinclorac 200 g ai/ha): 0%
% Visual Injury Obs ([8]; 50 g ai/ha alone, 20-22 d): 0%
% Visual Injury Obs ([8]; 100 g ai/ha alone, 20-22 d): 0%
% Visual Injury Obs ([8]; 200 g ai/ha alone, 20-22 d): 0%
% Visual Injury Obs ([8]; quinclorac 50 g ai/ha): 0%
Visual Injury Obs ([8]; quinclorac 50 g ai/ha): 0%
% Visual Injury Obs ([8]; quinclorac 100 g ai/ha): 0%
Visual Injury Obs ([8]; quinclorac 100 g ai/ha): 0%
% Visual Injury Obs ([8]; quinclorac 200 g ai/ha): 0%
Visual Injury Obs ([8]; quinclorac 200 g ai/ha): 0%
% Visual Injury Obs ([9]; 50 g ai/ha alone, 20-22 d): 0%
% Visual Injury Obs ([9]; 100 g ai/ha alone, 20-22 d): 0%
% Visual Injury Obs ([9]; 200 g ai/ha alone, 20-22 d): 0%
% Visual Injury Obs ([9]; quinclorac 50 g ai/ha): 0%
Visual Injury Obs ([9]; quinclorac 50 g ai/ha): 0%
% Visual Injury Obs ([9]; quinclorac 100 g ai/ha): 0%
Visual Injury Obs ([9]; quinclorac 100 g ai/ha): 0%
% Visual Injury Obs ([9]; quinclorac 200 g ai/ha): 0%
Visual Injury Obs ([9]; quinclorac 200 g ai/ha): 0%
Mean % Visual Injury ([10]; Table 14, 7DAAA, halauxifen-methyl 5, quinclorac 101 g ae/ha): 0.8%
Mean % Visual Injury ([10]; Table 14, 15DAAA, halauxifen-methyl 5, quinclorac 101 g ae/ha): 1.0%
Mean % Visual Injury ([10]; Table 14, 27DAAA, halauxifen-methyl 5, quinclorac 101 g ae/ha): 3.0%
Mean % Visual Injury ([10]; Table 14, 57DAAA, halauxifen-methyl 5, quinclorac 101 g ae/ha): 1.5%
Mean % Visual Injury ([10]; Table 15, 7DAAA, halauxifen-methyl 5, clopyralid-olamine 150, quinclorac 101 g ae/ha): 0.8%
Mean % Visual Injury ([10]; Table 15, 15DAAA, halauxifen-methyl 5, clopyralid-olamine 150, quinclorac 101 g ae/ha): 1.0%
Mean % Visual Injury ([10]; Table 15, 27DAAA, halauxifen-methyl 5, clopyralid-olamine 150, quinclorac 101 g ae/ha): 3.0%
Mean % Visual Injury ([10]; Table 15, 57DAAA, halauxifen-methyl 5, clopyralid-olamine 150, quinclorac 101 g ae/ha): 1.5%
Mean % Visual Injury ([10]; Table 21, 8DAAA, halauxifen-methyl 5, quinclorac 101 g ae/ha): 3.5%
Mean % Visual Injury ([10]; Table 21, 14DAAA, halauxifen-methyl 5, quinclorac 101 g ae/ha): 1.0%
Mean % Visual Injury ([10]; Table 21, 40DAAA, halauxifen-methyl 5, quinclorac 101 g ae/ha): 0.5%
Mean % Visual Injury ([10]; Table 21, 81DAAA, halauxifen-methyl 5, quinclorac 101 g ae/ha): 0.0%
Mean % Visual Injury ([10]; Table 22, 8DAAA, halauxifen-methyl 5, clopyralid-olamine 150, quinclorac 101 g ae/ha): 3.5%
Mean % Visual Injury ([10]; Table 22, 14DAAA, halauxifen-methyl 5, clopyralid-olamine 150, quinclorac 101 g ae/ha): 1.0%
Mean % Visual Injury ([10]; Table 22, 40DAAA, halauxifen-methyl 5, clopyralid-olamine 150, quinclorac 101 g ae/ha): 0.5%
Mean % Visual Injury ([10]; Table 22, 81DAAA, halauxifen-methyl 5, clopyralid-olamine 150, quinclorac 101 g ae/ha): 0.0%
Mean % Visual Injury ([10]; Table 27, 7DAAA, halauxifen-methyl 5, quinclorac 101 g ae/ha): 2.3%
Mean % Visual Injury ([10]; Table 27, 17DAAA, halauxifen-methyl 5, quinclorac 101 g ae/ha): 1.8%
Mean % Visual Injury ([10]; Table 27, 32DAAA, halauxifen-methyl 5, quinclorac 101 g ae/ha): 5.3%
Mean % Visual Injury ([10]; Table 27, 49DAAA, halauxifen-methyl 5, quinclorac 101 g ae/ha): 0.5%
Mean % Visual Injury ([10]; Table 28, 7DAAA, halauxifen-methyl 5, clopyralid-olamine 150, quinclorac 101 g ae/ha): 2.3%
Mean % Visual Injury ([10]; Table 28, 17DAAA, halauxifen-methyl 5, clopyralid-olamine 150, quinclorac 101 g ae/ha): 1.8%
Mean % Visual Injury ([10]; Table 28, 32DAAA, halauxifen-methyl 5, clopyralid-olamine 150, quinclorac 101 g ae/ha): 5.3%
Mean % Visual Injury ([10]; Table 28, 49DAAA, halauxifen-methyl 5, clopyralid-olamine 150, quinclorac 101 g ae/ha): 0.5%
% Visual Injury Obs ([11]; 50 g ai/ha alone, 20-22 d): 0%
% Visual Injury Obs ([11]; 100 g ai/ha alone, 20-22 d): 0%
% Visual Injury Obs ([11]; 200 g ai/ha alone, 20-22 d): 0%
% Visual Injury Obs ([11]; quinclorac 50 g ai/ha): 0%
Visual Injury Obs ([11]; quinclorac 50 g ai/ha): 0%
% Visual Injury Obs ([11]; quinclorac 100 g ai/ha): 0%
Visual Injury Obs ([11]; quinclorac 100 g ai/ha): 0%
% Visual Injury Obs ([11]; quinclorac 200 g ai/ha): 0%
Visual Injury Obs ([11]; quinclorac 200 g ai/ha): 0%
% Visual Injury Obs ([12]; 50 g ai/ha alone, 20-22 d): 0%
% Visual Injury Obs ([12]; 100 g ai/ha alone, 20-22 d): 0%
% Visual Injury Obs ([12]; 200 g ai/ha alone, 20-22 d): 0%
% Visual Injury Obs ([12]; quinclorac 50 g ai/ha): 0%
Visual Injury Obs ([12]; quinclorac 50 g ai/ha): 0%
% Visual Injury Obs ([12]; quinclorac 100 g ai/ha): 0%
Visual Injury Obs ([12]; quinclorac 100 g ai/ha): 0%
% Visual Injury Obs ([12]; quinclorac 200 g ai/ha): 0%
Visual Injury Obs ([12]; quinclorac 200 g ai/ha): 0%
% Visual Injury Obs ([13]; 50 g ai/ha alone, 20-22 d): 0%
% Visual Injury Obs ([13]; 100 g ai/ha alone, 20-22 d): 0%
% Visual Injury Obs ([13]; 200 g ai/ha alone, 20-22 d): 0%
% Visual Injury Obs ([13]; quinclorac 50 g ai/ha): 0%
Visual Injury Obs ([13]; quinclorac 50 g ai/ha): 0%
% Visual Injury Obs ([13]; quinclorac 100 g ai/ha): 0%
Visual Injury Obs ([13]; quinclorac 100 g ai/ha): 0%
% Visual Injury Obs ([13]; quinclorac 200 g ai/ha): 0%
Visual Injury Obs ([13]; quinclorac 200 g ai/ha): 0%

O=C(O)c1nc(Cl)ccc1Cl [Clopyralid-TIPA, (2RS,2′RS,2″RS)-tris(2-hydroxypropyl)ammonium 3,6-dichloropyridine-2-carboxylate]
Mean % Visual Growth Inhibition ([14]; 22DAA1, 45 g ae/ha): 2.0%
Mean % Visual Growth Inhibition ([14]; 22DAA1, 90 g ae/ha): 8.0%
Mean % Visual Injury ([14]; 22DAA1, 90 g ae/ha): 0.5%
Mean % Visual Growth Inhibition ([14]; 22DAA1, 180 g ae/ha): 7.0%
Mean % Visual Injury ([14]; 22DAA1, 180 g ae/ha): 0.5%
Mean % Visual Growth Inhibition ([14]; 28DAA1, 45 g ae/ha): 2.5%
Mean % Visual Injury ([14]; 28DAA1, 45 g ae/ha): 2.8%
Mean % Visual Growth Inhibition ([14]; 28DAA1, 90 g ae/ha): 5.0%
Mean % Visual Injury ([14]; 28DAA1, 90 g ae/ha): 4.5%
Mean % Visual Injury ([14]; 28DAA1, 180 g ae/ha): 3.0%
Mean % Visual Growth Inhibition ([14]; 56DAA1, 45 g ae/ha): 6.0%
Mean % Visual Growth Inhibition ([14]; 56DAA1, 90 g ae/ha): 2.0%
Mean % Visual Growth Inhibition ([14]; 56DAA1, 180 g ae/ha): 4.0%
Mean % Visual Injury ([15]; 3DAA1, 90 g ae/ha): 2.2%
Mean % Visual Injury ([15]; 7DAA1, 90 g ae/ha): 0.4%
Mean % Visual Injury ([15]; 15DAA1, 90 g ae/ha): 0.0%
Mean % Visual Injury ([15]; 28DAA1, 90 g ae/ha): 0.0%

CCOC(=O)C1=NN(c2ccc(Cl)cc2Cl)C(C)(C(=O)OCC)C1 (racemic) [Mefenpyr-diethyl, diethyl (RS)-1-(2,4-dichlorophenyl)-5-methyl-2-pyrazoline-3,5-dicarboxylate]
Percent (%) Visual Injury BRSNA Obs ([7]; safener alone 5 g ai/ha): 0%
Percent (%) Visual Injury BRSNA Obs ([7]; safener alone 10 g ai/ha): 0%
Percent (%) Visual Injury BRSNA Obs ([7]; safener alone 20 g ai/ha): 0%
Percent (%) Visual Injury BRSNA Obs ([7]; safener alone 40 g ai/ha): 0%
Percent (%) Visual Injury BRSNN-NEX Obs ([8]; safener alone 5 g ai/ha): 0%
Percent (%) Visual Injury BRSNN-NEX Obs ([8]; safener alone 10 g ai/ha): 0%
Percent (%) Visual Injury BRSNN-NEX Obs ([8]; safener alone 20 g ai/ha): 0%
Percent (%) Visual Injury BRSNN-NEX Obs ([8]; safener alone 40 g ai/ha): 0%
Percent (%) Visual Injury BRSRR Obs ([9]; safener alone 5 g ai/ha): 0%
Percent (%) Visual Injury BRSRR Obs ([9]; safener alone 10 g ai/ha): 0%
Percent (%) Visual Injury BRSRR Obs ([9]; safener alone 20 g ai/ha): 0%
Percent (%) Visual Injury BRSRR Obs ([9]; safener alone 40 g ai/ha): 0%
Percent (%) Visual Injury BRSAG Obs ([11]; safener alone 5 g ai/ha): 0%
Percent (%) Visual Injury BRSAG Obs ([11]; safener alone 10 g ai/ha): 0%
Percent (%) Visual Injury BRSAG Obs ([11]; safener alone 20 g ai/ha): 0%
Percent (%) Visual Injury BRSAG Obs ([11]; safener alone 40 g ai/ha): 0%
Percent (%) Visual Injury BRSNW Obs ([12]; safener alone 5 g ai/ha): 0%
Percent (%) Visual Injury BRSNW Obs ([12]; safener alone 10 g ai/ha): 0%
Percent (%) Visual Injury BRSNW Obs ([12]; safener alone 20 g ai/ha): 0%
Percent (%) Visual Injury BRSNW Obs ([12]; safener alone 40 g ai/ha): 0%
Percent (%) Visual Injury RR-BRSNN Obs ([13]; safener alone 5 g ai/ha): 0%
Percent (%) Visual Injury RR-BRSNN Obs ([13]; safener alone 10 g ai/ha): 0%
Percent (%) Visual Injury RR-BRSNN Obs ([13]; safener alone 20 g ai/ha): 0%
Percent (%) Visual Injury RR-BRSNN Obs ([13]; safener alone 40 g ai/ha): 0%
